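Briefly, cells in 96-well plates were exposed to five compound concentrations for 48 h, and endpoints were estimated by linear interpolation. TGI: concentration producing complete growth inhibition.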
What was measured:
Experiment in all cases: NCI-60 cell line screen, 48 h
SNB-19 CNS = system: SNB-19 CNS
U251 CNS = system: U251 CNS
NCI-H23 lung = system: NCI-H23 lung
MDA-MB-231 breast = system: MDA-MB-231 breast
DU-145 prostate = system: DU-145 prostate
MALME-3M melanoma = system: MALME-3M melanoma
TK-10 renal = system: TK-10 renal
A549 NSCLC = system: A549 NSCLC
NCI-H522 lung = system: NCI-H522 lung
NCI-H460 lung = system: NCI-H460 lung

Row | SMILES | TGI (SNB-19 CNS) [µM] | TGI (U251 CNS) [µM] | TGI (NCI-H23 lung) [µM] | TGI (MDA-MB-231 breast) [µM] | TGI (DU-145 prostate) [µM] | TGI (MALME-3M melanoma) [µM] | TGI (TK-10 renal) [µM] | TGI (A549 NSCLC) [µM] | TGI (NCI-H522 lung) [µM] | TGI (NCI-H460 lung) [µM]
1 | CCC1c2[nH]c3ccccc3c2C[C@H]2C(=O)NC(C)C(=O)N12 (stereo not given in full) | > 100 | > 100 | > 100 | > 100 | > 100 | > 100 | > 100 | > 100 | > 100 | –
2 | O=C(CC(C(=O)c1ccsc1)c1cccs1)c1ccccc1 (stereo not given) | – | > 100 | 93.3 | > 100 | > 100 | – | > 100 | 54.8 | > 100 | > 100
3 | C/C(Cc1ccc2c(c1)OCO2)=N\N=c1\sc2ccccc2n1C | > 100 | > 100 | > 100 | > 100 | > 100 | > 100 | > 100 | > 100 | > 100 | –
4 | N=c1oc2ccc3ccccc3c2cc1-c1nc2ccccc2c(=O)[nH]1 | > 100 | > 100 | – | 73.4 | > 100 | > 100 | 90.4 | 73.3 | 28.8 | > 100
5 | COc1ccc(C2=C(OC(C)=O)c3cccn3-c3ccc(Cl)cc3S2)cc1 | – | – | > 10 | > 10 | > 10 | > 10 | > 10 | > 10 | – | –
6 | COC(=O)c1csc(-c2csc(CCNC(=O)OC(C)(C)C)n2)n1 | > 100 | > 100 | > 100 | – | > 100 | > 100 | > 100 | > 100 | – | > 100
7 | O=C1OC(C(O)CO)C(C(O)CO)OC1=O (stereo not given) | > 10 | > 10 | > 10 | > 10 | – | > 10 | > 10 | > 10 | – | > 10
8 | O=C1C=C(NCCc2ccc(O)c([N+](=O)[O-])c2)C(=O)c2[nH]cnc21 | > 100 | > 100 | 45 | > 100 | – | 17.6 | > 100 | 93.4 | 57.8 | 69.6
9 | Nc1cc(CO)cc(Nc2c3ccccc3nc3ccccc23)c1 | – | 28.3 | 30.1 | 24.8 | 73.1 | 31.8 | 30.1 | 38.9 | 18.9 | > 100
10 | CCC(C)C(Nc1c2ccccc2nc2c(C(=O)NCCN(C)C)cccc12)C(=O)O (stereo not given) | > 100 | > 100 | 79.3 | 65.5 | > 100 | 35.1 | > 100 | > 100 | 56.8 | –
11 | CC(C)CC1c2[nH]c3ccccc3c2C[C@H]2C(=O)NC(Cc3c[nH]c4ccccc34)C(=O)N12 (stereo not given in full) | 43.6 | 28.4 | 40 | 49.9 | > 100 | 28 | 24.5 | 71 | 29.5 | –
12 | COc1cc(/C=C/C(=O)CC(=O)/C=C/c2cc(C)c(O)c(OC)c2)cc(C)c1O | > 100 | > 100 | > 100 | > 100 | > 100 | > 100 | – | > 100 | > 100 | > 100
13 | COC(=O)c1ccc(OCCn2nnc(C(=O)NN)c2C(=O)NN)cc1 | > 100 | > 100 | > 100 | > 100 | > 100 | > 100 | > 100 | > 100 | – | > 100
14 | COC(=O)[C@@]12CSC[C@]1(C(=O)OC)N[C@@H](c1ccccc1O)C2 | > 100 | > 100 | > 100 | – | > 100 | > 100 | > 100 | > 100 | > 100 | > 100
15 | Cc1cc(=O)[nH]c2cc(NC(=O)C(C)NC(=O)C(C)NC(=O)C(C)NC(=O)OC(C)(C)C)ccc12 (stereo not given) | > 15 | > 15 | > 15 | > 15 | > 15 | – | > 15 | > 15 | > 15 | > 15
16 | O=C1/C(=C/c2cccc([N+](=O)[O-])c2)N=C(c2ccccc2)N1c1nc2ccc(Sc3ccccc3)cc2[nH]1 | > 100 | > 100 | > 100 | > 100 | – | > 100 | > 100 | > 100 | > 100 | > 100
17 | O=C1CCCC2=C1CC1=C(CCCC1=O)N2c1ccc(Cl)cc1 | > 100 | > 100 | > 100 | > 100 | > 100 | > 100 | > 100 | > 100 | – | > 100
18 | O=C(O)c1ccc2c(O)c(O)ccc2c1 | 36.1 | 45.6 | 50.5 | 68.5 | > 100 | > 74.6 | 18.6 | > 93.8 | 36.4 | –
19 | O=C(Nc1ccccc1C(=O)NCc1ccccc1)/C(=C/c1ccccc1O)NC(=O)c1ccccc1 | > 100 | > 100 | > 100 | > 100 | > 100 | – | > 100 | > 100 | > 100 | > 100
